The values below are quoted from earlier work in patent US12714758B2, “DOTA-hapten compositions for anti-DOTA/anti-tumor antigen bispecific antibody pretargeted radioimmunotherapy” (Memorial Sloan Kettering Cancer Center, priority 2020, dated 2026).

The series concerns GD2. The conditions noted are these: 24 hours post-injection.

Turning to “^177Lu-S-2-(4-aminobenzyl)-1,4,7,10-tetraazacyclododecane tetraacetic acid chelate [^177Lu-DOTA-Bn]”, the blood uptake is given as 0.49±0.09 % ID/g and the kidney uptake is on record as 0.83±0.10 % ID/g. Further, for the setting “average±SD, n=5”, the tumor uptake is listed as 10.29±2.87 % ID/g.
